# Results taken from patent US9950048B2, “Immunogenic epitopes for immunotherapy” (immatics biotechnologies GmbH, priority 2007, dated 2018).
# Ends that are not written are not given here.
# Tests used:
# [1] = system: CD8+ T cells of healthy HLA-A*02+ donors; experiment: In vitro priming of CD8+ T cells with pMHC/anti-CD28 coated beads (high density), tetramer analysis; format: cell-based, human; settings: for Immunogenicity detected: at least one well with ≥1% specific tetramer+ among CD8+ T-cells and ≥10× median of negative controls; for Positive donors/donors tested / Positive donors/donors tested (%) / Positive wells/wells tested / Positive wells/wells tested (%): high density beads
# Method: To perform in vitro stimulations by artificial antigen presenting cells (aAPC) loaded with peptide-MHC complex (pMHC) and anti-CD28 antibody, first PBMCs (peripheral blood mononuclear cells) were isolated from fresh HLA-A*02+ buffy coats by using standard density gradient separation medium (PAA, Cölbe, Germany). Buffy coats were either obtained from the Blood Bank Tübingen or from the Katharinenhospital Stuttgart. Isolated PBMCs were incubated overnight in T-cell medium (TCM) for human in vitro priming consisting of RPMI-Glutamax (Invitrogen, Karlsruhe, Germany) supplemented with 10% heat inactivated human AB serum (PAA, Cölbe, Germany), 100 U/ml Penicillin/100 μg/ml Streptomycin (Cambrex, Verviers, Belgium), 1 mM sodium pyruvate (CC Pro, Neustadt, Germany) and 20 μg/ml Gentamycin (Cambrex). CD8+ lymphocytes were isolated using the CD8+ MACS positive selection kit (Miltenyi, Bergisch Gladbach, Germany) according to the manufacturer's instructions. Obtained CD8+ T-cells were incubated until use in TCM supplemented with 2.5 ng/ml IL-7 (PromoCell, Heidelberg, Germany) and 10 U/ml IL-2 (Chiron, Munich, Gemany). Generation of pMHC/anti-CD28 coated beads, T-cell stimulations and readout was performed as described before (Walter, S, et al., 2003, J. Immunol., 171, 4974-4978) with minor modifications. Briefly, biotinylated recombinant HLA-A*0201 molecules lacking the transmembrane domain and being biotinylated at the carboxy terminus of the heavy chain were produced following a method described by (Altman, J D, et al., 1996, Science, 274, 94-96). The purified costimulatory mouse IgG2a anti human CD28 Ab 9.3 (Jung, G, Ledbetter, J A, and Muller-Eberhard, H J; 1987, Induction of cytotoxicity in resting human T lymphocytes bound to tumor cells by antibody heteroconjugates, Proc Natl Acad Sci USA, 84, 4611-4615) was chemically biotinylated using Sulfo-N-hydroxysuccinimidobiotin as recommended by the manufacturer (Perbio, Bonn, Germany).
# 800,000 beads/200 μl were coated in 96-well plates in the presence of 600 ng biotin anti-CD28 plus 200 ng relevant biotin-pMHC (high density beads) or 2 ng relevant plus 200 ng irrelevant (pMHC library) MHC (low density beads). Stimulations were initiated in 96-well plates by conincubating 1×10^6 CD8+ T cells with 2×10^5 washed coated beads in 200 μl TCM supplemented with 5 ng/ml IL-12 (PromoCell) for 3-4 days at 37° C. Half of the medium was then exchanged by fresh TCM supplemented with 80 U/ml IL-2 and incubation was continued for 3-4 days at 37° C. This stimulation cycle was performed for a total of three times. Finally, tetrameric analyses were performed with fluorescent MHC tetramers (produced as described by (Altman, J D, et al., 1996, Science, 274, 94-96)) plus antibody CD8-FITC clone SK1 (BD, Heidelberg, Germany) on a four-color FACSCalibur (BD). Peptide specific cells were calculated as percentage of total CD8+ T cells. Evaluation of tetrameric analysis was performed using the software FCS Express (De Novo Software). In vitro priming of specific tetramer+CD8+ lymphocytes was detected by appropriate gating and by comparison to negative control stimulations.
# Peptides of the present invention were tested together with peptides of known in vivo immunogenicity for comparison. The CEA-005 peptide that was optimised for in vitro T-cell induction (Fong, L, et al., 2001, J. Immunol., 166, 4254-4259) served as control.
# Results of in vitro immunogenicity experiments conducted by immatics are summarised here. Results shown have been obtained by stimulation of CD8+ cells with high density beads. As different human serum lots may highly affect the immunogenicity results, only assays in which one and the same serum lot was used, were evaluated together.
# [2] = system: CD8+ T cells of healthy donors; experiment: Priming of high-avidity CD8+ T cells with low density pMHC beads, tetramer staining and FACS sorting; format: cell-based, human; settings: for establishment of specific high-avidity T-cell lines by FACS: healthy donors; for in vitro immunogenicity with low pMHC density aAPCs: low density beads (2 ng relevant pMHC)
# From the text: Dependent on their ability to be activated by high- or low-density antigen, T cell lines can be divided into high- or low-avidity. As it has been shown before (Walter, S, et al., 2003, J. Immunol., 171, 4974-4978), human high-avidity CTLs can be raised successfully by using less peptide for activation compared to low-avidity CD8+ T cells.
# To determine the ability of peptides to generate high-avidity CTL lines, isolated human CD8+ cells were primed and expanded by repeated in vitro stimulations with beads coated with low-density pMHC (peptide-MHC-complex) and anti-CD28 antibody in the presence of IL-12 and IL-2. After three stimulations, a fraction of in vitro primed T cells were pMHC-tetramer stained and detected by cytometric analysis. Tetramer-positive cells of each donor were pooled afterwards according to the antigen specificity, stained with pMHC-tetramer and human anti-CD8-FITC antibody and finally subjected to FACS sorting on a FACSAria. Sorted cells were cultured and expanded in the presence of irradiated feeder cells, cytokines and mitogen. As a read-out for the generation of primed high avidity antigen specific cells, pMHC-tetramer staining was performed. In order to determine their functionality, IFNγ production was assayed by ELISPOT and killing of tumor cell lines was examined using a cytotoxicity assay based on live/dead staining after restimulation of the cells with the corresponding peptide and tumor cell lines.
# In vitro stimulations using artificial antigen presenting cells (aAPC) loaded with peptide-MHC complex (pMHC) and anti-CD28 antibody were conducted as described above. The only difference to the method described above was the fact that stimulations were performed with beads loaded with 2 ng relevant plus 200 ng irrelevant library (pMHC) MHC (low density beads) instead of 200 ng relevant MHC (high density beads). Thus, predominantly high avidity T cells were generated for deeper validation of peptides. After three stimulations, a fraction of in vitro primed T cells was pMHC-tetramer stained and detected by cytometric analysis. […] Tetramer-positive cells of each donor were pooled afterwards according to the antigen specificity, stained with the corresponding pMHC-tetramer and human anti-CD8-FITC antibody clone SK1 and finally subjected to FACS sorting on a FACSAria (BD Biosciences, Germany). […] As a read-out for the generation of primed high avidity antigen specific cells, pMHC-tetramer staining was performed as above and analyzed on a four-color FACSCalibur (BD Biosciences, Germany).
sequence,measurement,setting,value
ALFVRLLALA [TGFBI-001],Immunogenicity detected,[1],yes
same,Positive donors/donors tested,[1],3/4
same,Positive donors/donors tested (%),[1],(75%)
same,Positive wells/wells tested,[1],4/22
same,Positive wells/wells tested (%),[1],(18%)
same,establishment of specific high-avidity T-cell lines by FACS,[2],specific T-cell lines could be established by FACS
same,in vitro immunogenicity with low pMHC density aAPCs,[2],immunogenic in vitro
ILAPVILYI [NOX-001],Immunogenicity detected,[1],yes
same,Positive donors/donors tested,[1],3/5
same,Positive donors/donors tested (%),[1],(60%)
same,Positive wells/wells tested,[1],9/60
same,Positive wells/wells tested (%),[1],(15%)
same,establishment of specific high-avidity T-cell lines by FACS,[2],specific T-cell lines could be established by FACS
same,in vitro immunogenicity with low pMHC density aAPCs,[2],immunogenic in vitro
